In patent publication US20220136032A1, “SELECTION MEDIUM FOR BACTERIA BELONGING TO GENUS PSEUDOMONAS AND USE THEREOF” (KABUSHIKI KAISHA YAKULT HONSHA, priority 2019, published 2022):
Where a name gives a salt, the structure may show the parent alone. Read-outs that look alike come from different tables or passages of the source. Each block holds one compound with its values, some of them ahead of it.

What was measured:
Assay in all cases: Measurement of minimum inhibitory concentrations (MICs), liquid medium, OD 660 nm
[1] = system: E. faecium; assay type: cell-based, Enterococcus faecium; conditions: Trypticase Soy Broth, 37° C. 24 hours
Description: (§1) Colonies of E. coli, E. faecium and C. kerstersii, which formed colonies on the plate medium obtained by mixing NAC medium and TSA medium at a ratio of 1:20, and colonies of P. aeruginosa were taken, added to 500 μl of the basal medium, stirred and subjected to the following experiment.
(§2) As antibacterial agents to which the sensitivity of P. aeruginosa is low and to which the sensitivities of E. coli, E. faecium and C. kerstersii are high, cefotaxime sodium salt (Sigma (referred to as “Cefotaxime” below)), ceftizoxime sodium (Fujisawa Healthcare (referred to as “Ceftizoxime” below)), vancomycin hydrochloride (Sigma (referred to as “Vancomycin” below)), minocyclin hydrochloride (Sigma (referred to as “Minocyclin” below)) and cefalotin sodium salt (Sigma (referred to as “Cefalotin” below)) were selected. The antibacterial agents were dissolved in sterilized distilled water at 51.2 mg/ml and then sterilized by filtration through a membrane filter of 0.45 μm (DISMIC-25cs: Toyo Roshi).
(§3) After adding 5 μl of the bacterial solutions to the wells and thoroughly stirring, the bacteria were cultured at 37° C. for 24 hours. After culturing, the OD values (660 nm) were measured, and the lowest concentrations of the antibacterial agents at which the growth was inhibited as compared to that of the negative control (MICs: minimum inhibitory concentrations) were determined. […]

[2] = system: C. kerstersii; assay type: cell-based, Comamonas kerstersii; conditions: for MIC: Comamonas kerstersii, read-out: MIC (μg/ml) C. kerstersii
Description: as §1, §2
(§4) After adding 5 μl of the bacterial solutions to the wells and thoroughly stirring, the bacteria were cultured at 37° C. for 24 hours. After culturing, the OD values (660 nm) were measured, and the lowest concentrations of the antibacterial agents at which the growth was inhibited as compared to that of the negative control (MICs: minimum inhibitory concentrations) were determined. As the negative control, the liquid medium to which the antibacterial agents were not added was used.

[3] = system: P. aeruginosa; assay type: cell-based, Pseudomonas aeruginosa; conditions: for MIC: Pseudomonas aeruginosa, read-out: MIC (μg/ml) P. aeruginosa
Description: as §1
The antibacterial agents were dissolved in sterilized distilled water at 51.2 mg/ml and then sterilized by filtration through a membrane filter of 0.45 μm (DISMIC-25cs: Toyo Roshi).
as §4

[4] = system: E. coli; assay type: cell-based; conditions: Escherichia coli; Trypticase Soy Broth, 37° C. 24 hours; read-out: MIC (μg/ml) E. coli
Description: as §1, §2, §3

[5] = Trypticase Soy Broth, 37° C. 24 hours

Structure (SMILES): CC(=O)OCC1=C(C(=O)O)N2C(=O)[C@@H](NC(=O)Cc3cccs3)[C@H]2SC1 [Cefalotin, cefalotin sodium salt]
MIC ([1]; Enterococcus faecium, read-out: MIC (μg/ml) E. faecium): 8 µg/mL
MIC [2, 5]: 16 µg/mL
Sensitivity of P. aeruginosa to the antibacterial agent [3]: low
MIC [3, 5]: > 256 µg/mL

Structure (SMILES): CO/N=C(\C(=O)N[C@@H]1C(=O)N2C(C(=O)O)=C(COC(C)=O)CS[C@H]12)c1csc(N)n1 [Cefotaxime, cefotaxime sodium salt]
MIC [3, 5]: 16 µg/mL
MIC [4]: < 0.5 µg/mL

Structure (SMILES): CN[C@H](CC(C)C)C(=O)N[C@H]1C(=O)N[C@@H](CC(N)=O)C(=O)N[C@H]2C(=O)N[C@H]3C(=O)N[C@H](C(=O)N[C@H](C(=O)O)c4cc(O)cc(O)c4-c4cc3ccc4O)[C@H](O)c3ccc(c(Cl)c3)Oc3cc2cc(c3O[C@@H]2O[C@H](CO)[C@@H](O)[C@H](O)[C@H]2O[C@H]2C[C@](C)(N)[C@H](O)[C@H](C)O2)Oc2ccc(cc2Cl)[C@H]1O [Vancomycin, vancomycin hydrochloride]
Sensitivity of C. kerstersii to the antibacterial agent [2]: low
MIC ([2]; 24 h): 128 µg/mL
MIC ([3]; 24 h): > 256 µg/mL

Now from value to compound, other results behind:

MIC [3, 5]: 64 µg/mL
MIC [4]: < 0.5 µg/mL
Structure (SMILES): CO/N=C(\C(=O)N[C@@H]1C(=O)N2C(C(=O)O)=CCS[C@H]12)c1csc(N)n1 [Ceftizoxime, ceftizoxime sodium]

MIC (μg/ml) E. faecium [1]: <0.5 µg/mL
MIC (μg/ml) C. kerstersii [2, 5]: <0.5 µg/mL
MIC (μg/ml) P. aeruginosa [3, 5]: <0.5 µg/mL
Structure (SMILES): CN(C)c1ccc(O)c2c1C[C@@H]1C[C@@H]3[C@H](N(C)C)C(=O)C(C(N)=O)=C(O)[C@@]3(O)C(=O)C1=C2O.Cl [Minocyclin, minocyclin hydrochloride]
Sensitivity of P. aeruginosa to the antibacterial agent [3]: sensitive
